# Data published in patent US20030134859A1 (SANKYO COMPANY, LIMITED, priority 2000, published 2003).
# Tested on: Mouse preadipocyte strain 3T3-L1
# Experiment: Inhibition of differentiation as an indication of acetic acid uptake
# Type: cell-based
# Conditions: control (0.01% dimethylsulfoxide) = 100%
# How it was run: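 Differentiation is indexed by 1 hr [2-14C]acetic acid incorporation, measured by scintillation counting and given as uptake relative to 0.01% DMSO control (100%). Mouse 3T3-L1 preadipocytes, pre-grown 10 days, received 0.1 μM test substance throughout a 4-day insulin/IBMX/dexamethasone induction, followed by 2 days' maintenance culture.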
molecule,measurement,setting,value
O=C(Nc1ccc(S(=O)(=O)Nc2cccnc2)cc1)c1cc([N+](=O)[O-])ccc1Cl [Example 178],activity at 0.1 µM,"Mus musculus, 3T3-L1, 0.1 μM test substance, read-out: Rate of Uptake (%) of [2-14C] acetic acid",66.2%
N-[4-(Pyrrolidinylsulfonyl)phenyl]-(2-chloro-5-nitrophenyl)carboxamide [Example 152],Rate of Uptake (%) of [2-14C] acetic acid,0.1 μM test substance,69.6%
